Experimental data published in patent publication US8883826B2, “Alkynyl derivatives as modulators of metabotropic glutamate receptors” (Addex Pharma SA, priority 2004, dated 2014).

Target: T1, mGluR5 (Rattus norvegicus, UniProt P31424)
T1 construct: tissue Charles River Laboratories; host or cells: rat brain cortex membranes (Sprague-Dawley)
Assay: mGluR5 binding assay ([3H]-MPEP radioligand competition)
Settings: competition with 3 nM [3H]-MPEP, rat brain cortical membranes, 1 h at 4 °C; mean of at least three independent experiments in duplicate
Outline: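 Rat cortical membranes (50 μg) were incubated 1 h at 4 °C with 3 nM [3H]-MPEP and compound (0.003 nM-30 μM, 8 points) in HEPES buffer pH 7.4 with Mg2+, Ca2+ and NaCl. 30 μM MPEP defined non-specific binding, and bound label was counted after filtration. IC50 came from non-linear regression, as the mean of ≥3 experiments run in duplicate.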

T1 sequence (P31424 21-1203): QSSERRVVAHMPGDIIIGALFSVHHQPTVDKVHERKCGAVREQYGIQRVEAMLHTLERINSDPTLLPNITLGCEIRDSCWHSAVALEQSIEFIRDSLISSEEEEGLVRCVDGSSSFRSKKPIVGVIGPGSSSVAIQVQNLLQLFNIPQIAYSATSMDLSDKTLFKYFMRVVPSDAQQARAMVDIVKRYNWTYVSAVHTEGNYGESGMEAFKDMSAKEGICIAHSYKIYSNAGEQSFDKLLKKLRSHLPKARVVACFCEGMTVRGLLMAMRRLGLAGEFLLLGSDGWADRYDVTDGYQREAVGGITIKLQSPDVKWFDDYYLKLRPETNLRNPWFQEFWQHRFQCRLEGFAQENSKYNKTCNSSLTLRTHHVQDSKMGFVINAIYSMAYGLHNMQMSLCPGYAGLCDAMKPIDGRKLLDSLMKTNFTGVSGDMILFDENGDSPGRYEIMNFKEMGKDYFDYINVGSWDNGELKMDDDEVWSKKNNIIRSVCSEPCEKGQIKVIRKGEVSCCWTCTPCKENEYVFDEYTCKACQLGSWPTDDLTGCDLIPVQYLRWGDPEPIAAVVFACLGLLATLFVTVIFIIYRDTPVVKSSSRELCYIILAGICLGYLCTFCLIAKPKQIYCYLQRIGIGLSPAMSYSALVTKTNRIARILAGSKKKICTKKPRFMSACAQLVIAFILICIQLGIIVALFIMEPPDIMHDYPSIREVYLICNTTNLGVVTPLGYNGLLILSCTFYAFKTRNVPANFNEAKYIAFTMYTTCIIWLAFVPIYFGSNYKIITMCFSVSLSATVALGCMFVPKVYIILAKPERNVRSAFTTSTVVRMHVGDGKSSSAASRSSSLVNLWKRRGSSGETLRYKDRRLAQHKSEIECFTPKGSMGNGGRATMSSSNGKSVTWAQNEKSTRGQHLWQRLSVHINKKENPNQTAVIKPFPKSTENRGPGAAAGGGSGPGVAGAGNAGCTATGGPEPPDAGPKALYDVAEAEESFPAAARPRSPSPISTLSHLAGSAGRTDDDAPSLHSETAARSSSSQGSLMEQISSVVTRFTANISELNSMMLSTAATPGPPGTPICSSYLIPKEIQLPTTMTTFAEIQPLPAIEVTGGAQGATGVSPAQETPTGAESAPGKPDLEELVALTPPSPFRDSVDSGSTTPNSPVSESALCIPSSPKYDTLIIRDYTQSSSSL

IC50	Structure (SMILES)
< 10 µM	O=CNc1cccc(C#CCCn2nc3ccccc3n2)n1 [Example 175, N-(6-(4-(2H-Benzo[d][1,2,3]triazol-2-yl)but-1-ynyl)pyridin-2-yl)formamide]
< 10 µM	Cc1nc(C#CCCn2nc3cccc(Cl)c3n2)cn1C [Example 176, 4-Chloro-2-(4-(1,2-dimethyl-1H-imidazol-4-yl)but-3-ynyl)-2H-benzo[d][1,2,3]triazole]
< 10 µM	Cc1ccc2nn(CCC#Cc3ccccn3)nc2c1C [Example 177, 4,5-Dimethyl-2-(4-(pyridin-2-yl)but-3-ynyl)-2H-benzo[d][1,2,3]triazole]
< 10 µM	Cc1ccc2nn(CCC#Cc3cccc(CF)n3)nc2c1C [Example 178, 2-(4-(6-(Fluoromethyl)pyridin-2-yl)but-3-ynyl)-4,5-dimethyl-2H-benzo[d][1,2,3]triazole]
< 10 µM	Clc1cccc(C#CCCn2nc3ccccc3n2)n1 [Example 180, 2-(4-(6-Chloropyridin-2-yl)but-3-ynyl)-2H-benzo[d][1,2,3]triazole]
< 10 µM	Cc1nc2ccccc2nc1CCC#Cc1cccc(CF)n1 [Example 181, 2-(4-(6-(Fluoromethyl)pyridin-2-yl)but-3-ynyl)-3-methylquinoxaline]
< 10 µM	CC(F)c1cccc(C#CCCn2nc3ccccc3n2)n1 (stereo not shown) [Example 182, 2-(4-(6-(1-Fluoroethyl)pyridin-2-yl)but-3-ynyl)-2H-benzo[d][1,2,3]triazole]
< 10 µM	O=C(NCCC#Cc1cccc(CF)n1)c1c(Cl)cccc1Cl [Example 189, 2,6-Dichloro-N-(4-(6-(fluoromethyl)pyridin-2-yl)but-3-ynyl)benzamide]
< 10 µM	Cn1c(CCC#Cc2cccc(CF)n2)nc2cccc(Cl)c21 [Example 191, 7-Chloro-2-(4-(6-(fluoromethyl)pyridin-2-yl)but-3-ynyl)-1-methyl-1H-benzo[d]imidazole]
< 0.5 µM	Cn1c(CCC#Cc2ccccn2)nc2cccc(Cl)c21 [Example 192, 7-Chloro-1-methyl-2-(4-(pyridin-2-yl)but-3-ynyl)-1H-benzo[d]imidazole]
< 10 µM	CC(C)n1c(CCC#Cc2ccccn2)nc2ccccc21 [Example 194, 1-Isopropyl-2-(4-(pyridin-2-yl)but-3-ynyl)-1H-benzo[d]imidazole]
< 10 µM	Cn1c(CCC#Cc2ccccn2)nc2cc(F)ccc21 [Example 197, 5-Fluoro-1-methyl-2-(4-(pyridin-2-yl)but-3-ynyl)-1H-benzo[d]imidazole]
< 10 µM	O=c1ccccn1CCC#Cc1ccccn1 [Example 198, 1-(4-(Pyridin-2-yl)but-3-ynyl)pyridin-2(1H)-one]
< 10 µM	CN(CCC#Cc1ccccn1)C(=O)c1cccc(F)c1 [Example 200, 3-Fluoro-N-methyl-N-(4-(pyridin-2-yl)but-3-ynyl)benzamide]
< 10 µM	CN(CCC#Cc1ccccn1)C(=O)c1ccccc1C(F)(F)F [Example 202, N-Methyl-N-(4-(pyridin-2-yl)but-3-ynyl)-2-(trifluoromethyl)benzamide]
< 10 µM	CN(CCC#Cc1ccccn1)C(=O)c1ccccc1Cl [Example 204, 2-Chloro-N-methyl-N-(4-(pyridin-2-yl)but-3-ynyl)benzamide]
< 10 µM	CN(CCC#Cc1ccccn1)C(=O)c1cccc(Cl)c1 [Example 205, 3-Chloro-N-methyl-N-(4-(pyridin-2-yl)but-3-ynyl)benzamide]
< 10 µM	CN(CCC#Cc1ccccn1)S(=O)(=O)c1ccc(F)cc1 [Example 206, 4-Fluoro-N-methyl-N-(4-(pyridin-2-yl)but-3-ynyl)benzenesulfonamide]
< 10 µM	CN(CCC#Cc1ccccn1)S(=O)(=O)c1ccccc1Cl [Example 207, 2-Chloro-N-methyl-N-(4-(pyridin-2-yl)but-3-ynyl)benzenesulfonamide]

IC50	Structure (SMILES)
< 0.5 µM	CN(CCC#Cc1cccc(CF)n1)C(=O)c1ccccc1Cl [Example 208, 2-Chloro-N-(4-(6-(fluoromethyl)pyridin-2-yl)but-3-ynyl)-N-methylbenzamide]
< 0.05 µM	CN(CCC#Cc1cccc(CF)n1)S(=O)(=O)c1ccccc1Cl [Example 209, 2-Chloro-N-(4-(6-(fluoromethyl)pyridin-2-yl)but-3-ynyl)-N-methylbenzene sulfonamide]
< 10 µM	CN(CCC#Cc1ccccn1)C(=O)c1ccccc1 [Example 211, N-Methyl-N-(4-(pyridin-2-yl)but-3-ynyl)benzamide]
< 10 µM	Cc1ccccc1C(=O)N(C)CCC#Cc1ccccn1 [Example 212, N,2-Dimethyl-N-(4-(pyridin-2-yl)but-3-ynyl)benzamide]
< 10 µM	CN(CCC#Cc1ccccn1)C(=O)c1ccccc1F [Example 213, 2-Fluoro-N-methyl-N-(4-(pyridin-2-yl)but-3-ynyl)benzamide]
< 10 µM	Cc1cccc(C(=O)N(C)CCC#Cc2ccccn2)c1 [Example 215, N,3-Dimethyl-N-(4-(pyridin-2-yl)but-3-ynyl)benzamide]
< 10 µM	COc1ccccc1C(=O)N(C)CCC#Cc1ccccn1 [Example 216, 2-Methoxy-N-methyl-N-(4-(pyridin-2-yl)but-3-ynyl)benzamide]
< 10 µM	CN(CCC#Cc1ccccn1)C(=O)c1cccc(F)c1F [Example 217, 2,3-Difluoro-N-methyl-N-(4-(pyridin-2-yl)but-3-ynyl)benzamide]
< 0.5 µM	CN(CCC#Cc1ccccn1)C(=O)c1c(Cl)cccc1Cl [Example 218, 2,6-Dichloro-N-methyl-N-(4-(pyridin-2-yl)but-3-ynyl)benzamide]
< 10 µM	Cc1noc(C)c1S(=O)(=O)N(C)CCC#Cc1ccccn1 [Example 219, N,3,5-Trimethyl-N-(4-(pyridin-2-yl)but-3-ynyl)isoxazole-4-sulfonamide]
< 10 µM	C(#Cc1ccccn1)CCNc1nc2ccccc2s1 [Example 220, N-(4-(Pyridin-2-yl)but-3-ynyl)benzo[d]thiazol-2-amine]
< 10 µM	Cn1c(=O)n(CCCC#Cc2ccccn2)c2ccccc21 [Example 221, 1-Methyl-3-(5-(pyridin-2-yl)pent-4-ynyl)-1H-benzo[d]imidazol-2(3H)-one]
< 0.05 µM	FCc1cccc(C#CCCc2cn3cccc(Br)c3n2)n1 [Example 225, 8-Bromo-2-(4-(6-(fluoromethyl)pyridin-2-yl)but-3-ynyl)-imidazo[1,2-a]pyridine]
< 10 µM	FCc1cccc(C#CCCc2cn3cccc(-c4ccccc4)c3n2)n1 [Example 227, 2-(4-(6-(Fluoromethyl)pyridin-2-yl)but-3-ynyl)-8-phenyl-imidazo[1,2-a]pyridine]
< 0.05 µM	O=C(OCCC#Cc1ccccn1)c1ccccc1Cl [Example 235, 4-(Pyridin-2-yl)but-3-ynyl 2-chlorobenzoate]
< 0.05 µM	O=C(OCCC#Cc1ccccn1)c1cccc(Cl)c1 [Example 236, 4-(Pyridin-2-yl)but-3-ynyl 3-chlorobenzoate]
< 10 µM	O=c1c2ccccc2cnn1CCCCC#Cc1ccccn1 [Example 243, 2-(6-(Pyridin-2-yl)hex-5-ynyl)phthalazin-1(2H)-one]
< 10 µM	O=C(NCCC#Cc1cccc(CF)n1)c1ccccc1Cl [Example 247, 2-Chloro-N-(4-(6-(fluoromethyl)pyridin-2-yl)but-3-ynyl)benzamide]
